For six compounds, IC50 results are on record in PMC5075052, “Modulation of the Substitution Pattern of 5-Aryl-2-Aminoimidazoles Allows Fine-Tuning of Their Antibiofilm Activity Spectrum and Toxicity” (Antimicrobial Agents and Chemotherapy, 2016).

One assay deals with E. coli TG1. As to the kind of experiment: Monospecies bacterial biofilm inhibition, static peg assay. In kind it is cell-based, Escherichia coli. Conditions: Escherichia coli. Here is the method:
(§1) A static peg assay, described previously ([27], [74]), was used for bacterial biofilm formation. The Calgary biofilm device consists of a platform carrying 96 polystyrene pegs (Nunc no. 445497) that fits as a microtiter plate lid, with 1 peg hanging into each microtiter plate well (Nunc no. 269789). Twofold serial dilutions of the compounds (dissolved in 100% dimethyl sulfoxide [DMSO] or ethanol) in 100 μl liquid broth (TSB diluted 1/20) per well were prepared in the microtiter plate in duplicate or triplicate with a maximum concentration of 1,600 μM and a minimum concentration of 0.8 μM. Subsequently, an overnight culture of S. Typhimurium ATCC 14028, P. aeruginosa PA14, E. coli TG1, S. epidermidis, S. aureus SH1000, or S. aureus ATCC 6538 (all grown in LB) was diluted 1:100 into TSB diluted 1/20 (or TSB for S. epidermidis, S. aureus SH1000, and S. aureus ATCC 6538), whereas overnight cultures of S. liquefaciens MG44 and B. cepacia LMG1222T were diluted 1:50 into TSB diluted 1/20. P. gingivalis ATCC 33277 cultures were diluted in TSB diluted 1/20 to have a final concentration of 1 × 10^8 cells/ml. Next, 100 μl was added to each well of the microtiter plate, resulting in a total volume of 200 μl medium per well (final concentration range of compounds, 800 μM [2% DMSO or ethanol] to 0.4 μM [0.001% DMSO or ethanol]). In the next step, the pegged lid was placed on the microtiter plate and the plate was incubated for 24 h or 48 h at 25°C or 37°C without shaking. At 37°C, the plates were placed in a sealed container with wet towels on the bottom to prevent evaporation of the growth medium. Biofilms of P. gingivalis ATCC 33277 were grown anaerobically at 37°C for 72 h. During this incubation period, biofilms were formed on the surface of the pegs. After incubation, the optical density at 600 nm (OD600) for the planktonic cells in the microtiter plate was measured using a Synergy MX multimode reader (BioTek, Winooski, VT). This gives a first indication of the effect of the compounds on planktonic growth. For quantification of biofilm formation, the pegs were washed once in 200 μl PBS. The remaining attached bacteria were stained for 30 min with 200 μl 0.1% (wt/vol) crystal violet in an isopropanol-methanol-PBS solution (1:1:18, vol/vol). Excess stain was rinsed off by placing the pegs in a 96-well plate filled with 200 μl distilled water per well. After air drying of the pegs (30 min), the dye bound to the adherent biofilm was extracted with 30% glacial acetic acid (200 μl per well of a 96-well plate). The optical density at 570 nm (OD570) of each well was measured using a Synergy MX multimode reader (BioTek, Winooski, VT). The concentration of each compound needed to inhibit biofilm formation by 50% (BIC50) and the concentration of each compound needed to inhibit planktonic growth by 50% (IC50) were determined from the concentration gradient by using nonlinear curve fitting (GraphPad Prism software, version 5; GraphPad Software, Inc., La Jolla, CA). In the same assay, the effect on planktonic growth was evaluated. The activity was considered biofilm specific if the BIC50 was at least two times lower than the IC50. Data represent the means from at least 3 technical repeats with the corresponding 95% confidence intervals (provided in the supplemental material).

The test system of a further assay is P. aeruginosa PA14. The assay is described as above. Type of assay: cell-based, Pseudomonas aeruginosa. The following applies: Pseudomonas aeruginosa. Here is the method: as §1
The subject of a further assay is S. aureus ATCC 6538. Kind of assay: Monospecies bacterial biofilm inhibition, static peg assay (Calgary device, crystal violet; planktonic OD600). Type of assay: cell-based, Staphylococcus aureus. The following applies: Staphylococcus aureus, ATCC6538, S. aureus ATCC 6538, 37°C. Here is the method:
as §1

The subject of assay [1] is E. coli TG1 + P. aeruginosa PA14. Kind of assay: Mixed-species E. coli-P. aeruginosa biofilm assay (peg, crystal violet). Type of assay: cell-based, Escherichia coli + Pseudomonas aeruginosa. The protocol: Overnight cultures of E. coli TG1 and P. aeruginosa PA14 were diluted 1/100 in the same vial of TSB diluted 1/20 to form a mixed-culture suspension. Next, 2-fold serial dilutions of the compounds (dissolved in 100% DMSO or ethanol) in 100 μl liquid broth (TSB diluted 1/20) per well were prepared in the microtiter plate of the Calgary biofilm device (Nunc no. 269789) in duplicate or triplicate with a maximum concentration of 1,600 μM and a minimum concentration of 0.8 μM. One hundred microliters of the mixed-culture suspension was added to each well of the microtiter plate, resulting in a total volume of 200 μl medium per well (final concentration range of compounds, 800 μM [2% DMSO or ethanol] to 0.4 μM [0.001% DMSO or ethanol]). The pegged lid was placed on the microtiter plate, and the plate was incubated for 72 h at 37°C, which allowed biofilm formation on the pegs (Nunc no. 269789) of the Calgary biofilm device. After 72 h, the biofilm was colored with crystal violet as described above ([74]). The OD570 (biofilm cells) and OD600 (planktonic cells) were measured, and the BIC50 and the IC50, respectively, were calculated.

Assay [2] relates to S. aureus ATCC 6538 + S. epidermidis. Kind of assay: Mixed-species S. aureus-S. epidermidis biofilm assay (peg, crystal violet). In kind it is cell-based, Staphylococcus aureus + Staphylococcus epidermidis. Conditions: 37°C. Here is the method: Overnight cultures of S. aureus ATCC 6538 and S. epidermidis were grown in LB medium and were diluted 1/200 in the same vial of TSB to form a mixed-culture suspension. Next, 2-fold serial dilutions of the compounds (dissolved in 100% DMSO or ethanol) in 100 μl TSB medium per well were prepared in the microtiter plate (Nunc no. 269789) in duplicate or triplicate with a maximum concentration of 1,600 μM and a minimum concentration of 0.8 μM. One hundred microliters of the mixed-culture suspension was added to each well of the microtiter plate, resulting in a total volume of 200 μl medium per well (final concentration range of compounds, 800 μM [2% DMSO or ethanol] to 0.4 μM [0.001% DMSO or ethanol]). The cells were then incubated for 48 h at 37°C, which allowed biofilm formation on the pegs (Nunc no. 269789) of the Calgary biofilm device. After 24 h, fresh medium with compounds was added to the wells, and after 48 h, the biofilm was colored with crystal violet as described above ([74]). The OD570 (biofilm) and OD600 (planktonic) were measured, and the BIC50 and the IC50, respectively, were calculated.

[3] abbreviates: TG1, E. coli TG1, 25°C, read-out: BIC50.
[4] abbreviates: TG1, E. coli TG1, 25°C, read-out: IC50 (planktonic growth).
Setting [5] is: TG1, E. coli TG1, 37°C, read-out: BIC50.
The mark [6] stands for this setting: TG1, E. coli TG1, 37°C, read-out: IC50 (planktonic growth).
Where [7] appears, read: PA14, P. aeruginosa PA14, 25°C, read-out: BIC50.
Setting [8] is: PA14, P. aeruginosa PA14, 25°C, read-out: IC50 (planktonic growth).
The mark [9] stands for this setting: PA14, P. aeruginosa PA14, 37°C, read-out: BIC50.
Where [10] appears, read: PA14, P. aeruginosa PA14, 37°C, read-out: IC50 (planktonic growth).
The mark [11] stands for this setting: planktonic OD600, read-out: IC50 (concentration needed to inhibit planktonic growth by 50%).
The mark [12] stands for this setting: read-out: BIC50 (concentration needed to inhibit biofilm formation by 50%).
The mark [13] stands for this setting: mixed E. coli TG1 + P. aeruginosa PA14, 37°C, read-out: IC50 (planktonic growth).
Where [14] appears, read: mixed E. coli TG1 + P. aeruginosa PA14 biofilm, 37°C, read-out: BIC50.
The mark [15] stands for this setting: mixed S. aureus ATCC 6538 + S. epidermidis biofilm, read-out: BIC50.
[16] abbreviates: mixed S. aureus ATCC 6538 + S. epidermidis, read-out: IC50 (planktonic growth).

Structures are written as SMILES. Read-outs that look alike come from different tables or passages of the source. Where only a bound is given, the exact number is not on record here.

As to `CCCCCCCCn1c(-c2ccc(Br)cc2)cnc1NCC(C)C` [Compound 8c], the IC50 was > 400 µM in the assay with E. coli TG1 (setting [3]); 150 µM in the assay on E. coli TG1 (setting [4]); > 400 µM in the assay with E. coli TG1 (setting [5]); 74.1 µM with E. coli TG1 (setting [6]); > 400 µM in the assay with P. aeruginosa PA14 (setting [7]); > 400 µM in the assay with P. aeruginosa PA14 (setting [8]). Further, the IC50 in the assay on P. aeruginosa PA14 (setting [9]) is > 400 µM; with P. aeruginosa PA14 (setting [10]), 345 µM; in the assay on S. aureus ATCC 6538 (setting [11]), 173 µM; in the assay with S. aureus ATCC 6538 (setting [12]), 41 µM; in assay [1] (setting [13]), > 400 µM; in assay [1] (setting [14]) it was > 400 µM. The IC50 in assay [2] (setting [15]) was 5 µM; in assay [2] (setting [16]), > 400 µM.
As to `CCCCCCCCn1c(-c2ccc(Cl)c(Cl)c2)cnc1NCC(C)C` [Compound 8d], the IC50 in the assay with E. coli TG1 (setting [3]) was > 400 µM; in the assay with E. coli TG1 (setting [4]), 255 µM; in the assay with E. coli TG1 (setting [5]), > 400 µM; in the assay on E. coli TG1 (setting [6]), 46.3 µM; with P. aeruginosa PA14 (setting [7]), > 400 µM; in the assay on P. aeruginosa PA14 (setting [8]), > 400 µM. For the same compound, the IC50 is > 400 µM with P. aeruginosa PA14 (setting [9]); > 400 µM with P. aeruginosa PA14 (setting [10]); > 400 µM in the assay on S. aureus ATCC 6538 (setting [11]); 116 µM with S. aureus ATCC 6538 (setting [12]); > 400 µM in assay [1] (setting [13]); > 400 µM in assay [1] (setting [14]). Further, the IC50 in assay [2] (setting [15]) and in assay [2] (setting [16]) was > 400 µM in each case.
Regarding `CCCCCCCCn1c(-c2ccccc2)cnc1NC1CCCC1` [Compound 8e], the IC50 in the assay with E. coli TG1 (setting [3]) is ~26.7 µM; in the assay on E. coli TG1 (setting [4]), 189 µM; in the assay with E. coli TG1 (setting [5]) it was ~27.6 µM; in the assay on E. coli TG1 (setting [6]), 10.5 µM; with P. aeruginosa PA14 (setting [7]), > 400 µM; with P. aeruginosa PA14 (setting [8]), 62.9 µM. In addition, the IC50 in the assay with P. aeruginosa PA14 (setting [9]) was > 400 µM; in the assay with P. aeruginosa PA14 (setting [10]) it was 167 µM; in the assay with S. aureus ATCC 6538 (setting [11]) it was 46.5 µM; in the assay on S. aureus ATCC 6538 (setting [12]), 1 µM; in assay [1] (setting [13]) it was > 400 µM; in assay [1] (setting [14]) it was 101 µM. For the same compound, the IC50 in assay [2] (setting [15]) was ~3 µM; in assay [2] (setting [16]), ~23.6 µM.
Take `CCCCCCCCn1c(-c2ccc(Cl)cc2)cnc1NC1CCCC1` [Compound 8f]: the IC50 is 29.1 µM in the assay with E. coli TG1 (setting [3]); > 400 µM with E. coli TG1 (setting [4]); 306 µM with E. coli TG1 (setting [5]); 370 µM in the assay with E. coli TG1 (setting [6]); > 400 µM in the assay on P. aeruginosa PA14 (setting [7]); > 400 µM with P. aeruginosa PA14 (setting [8]). The IC50 in the assay with P. aeruginosa PA14 (setting [9]) was > 400 µM; in the assay on P. aeruginosa PA14 (setting [10]), > 400 µM; in the assay with S. aureus ATCC 6538 (setting [11]), ~24.1 µM; in the assay with S. aureus ATCC 6538 (setting [12]), 6.7 µM; in assay [1] (setting [13]) it was > 400 µM; in assay [1] (setting [14]), 400 µM. The IC50 in assay [2] (setting [15]) is 2 µM; in assay [2] (setting [16]) it was ~22.5 µM.
Regarding `CCCCCCCCn1c(-c2ccc(Br)cc2)cnc1NC1CCCC1` [Compound 8g], the IC50 in the assay on E. coli TG1 (setting [3]) is 43 µM; in the assay with E. coli TG1 (setting [4]), > 400 µM; in the assay with E. coli TG1 (setting [5]), > 400 µM; in the assay on E. coli TG1 (setting [6]), 237 µM; with P. aeruginosa PA14 (setting [7]) it was > 400 µM; with P. aeruginosa PA14 (setting [8]), > 400 µM. The IC50 with P. aeruginosa PA14 (setting [9]) was > 400 µM; in the assay on P. aeruginosa PA14 (setting [10]) it was > 400 µM; in the assay on S. aureus ATCC 6538 (setting [11]) it was 19.1 µM; in the assay on S. aureus ATCC 6538 (setting [12]), 8.5 µM; in assay [1] (setting [13]), > 400 µM; in assay [1] (setting [14]), > 400 µM. The IC50 in assay [2] (setting [15]) is ~5.6 µM; in assay [2] (setting [16]) it was 15.5 µM.
As for `CCCCCCCCn1c(-c2ccc(Cl)c(Cl)c2)cnc1NC1CCCC1` [Compound 8h], the IC50 in the assay on E. coli TG1 (setting [3]), in the assay on E. coli TG1 (setting [4]), in the assay on E. coli TG1 (setting [5]), in the assay with E. coli TG1 (setting [6]), in the assay with P. aeruginosa PA14 (setting [7]) and with P. aeruginosa PA14 (setting [8]) was > 400 µM throughout. The IC50 is > 400 µM in the assay on P. aeruginosa PA14 (setting [9]); > 400 µM with P. aeruginosa PA14 (setting [10]); 19.5 µM with S. aureus ATCC 6538 (setting [11]); 3.8 µM in the assay on S. aureus ATCC 6538 (setting [12]); > 400 µM in assay [1] (setting [13]); > 400 µM in assay [1] (setting [14]). Moreover, the IC50 in assay [2] (setting [15]) is 4.9 µM; in assay [2] (setting [16]) it was ~25.1 µM.
